Measured values taken from US9896421B2, “Compound having skin-whitening, anti-oxidizing and PPAR activities and medical use thereof” (Pusan National University Industry-University Cooperation …, priority 2011, dated 2018).
Entries after “also recorded” stand apart in the source; their conditions may differ.

Tests used:
[1] = test system: ROS generated by vascular endothelial cells (YPEN-1); experiment: In vitro ROS scavenging activity assay (DCFDA) in YPEN-1 vascular endothelial cells; assay type: cell-based, rat; conditions: YPEN-1 cells pre-treated with 50 μM SIN-1 for 1 hour; DCFDA fluorescence; compared with trolox (positive control); FIGS. 1 to 3
Experimental: YPEN-1 cells (rat prostatic endothelial cell line) was obtained from American type culture collection (ATCC, Manassas, Va., USA), and the cells were cultured by using a dulbecco's modified eagle medium (DMEM, Nissui, Tokyo, Japan) containing 2 mM L-glutamine, […], 2.5 mg/L amphotericin B, and 5% inactivated fetal bovine serum (FBS). Also, the cells were maintained at a temperature of 37° C. in a humid atmosphere-like condition containing 5% CO2 and 95% air. […] The cells were sub-cultured in 100 mm plastic flask (Corning Co., New York, USA) every two days to maintain the cell line.
Since the oil-soluble DCFDA was deacetylated into non-fluorescent DCFH due to esterase or oxidative hydrolysis and the DCFH was oxidized due to activity oxgyen to produce highly-fluorescent 2′,7′-dichlorofluorescein (DCF), the present measurement was performed at an excitation wavelength of 485 nm and an emission wavelength of 530 nm by using a fluorophotometer (GENios, TECAN). Vascular endothelial cells that were pre-treated with 50 μM 3-morpholinosydnonimine hydrochloride (SIN-1) for 1 hour were used as a reactive oxygen generation source.

[2] = test system: Mushroom-derived tyrosinase; experiment: Tyrosinase inhibitory effect; assay type: biochemical; conditions: 1 mM L-tyrosin, pH 6.5, 25° C., 30 minutes, OD492; compared with kojic acid (positive control); FIGS. 4 to 6
Experimental: Mushroom-derived tyrosinase was sued as an enzyme source in the present experiment. Tyrosinase activities were assayed according to a slightly-modified conventionally known method (Life Sci., 1999, 65, 241-246). In detail, 20 μl of a mushroom-derived tyrosinase (1000 units) aqueous solution was added to 96-well microplate (Nunc, Denmark) to prepare 200 μl of the total volume of assay mixture containing 1 mM L-tyrosin solution and 50 mM phosphate buffer solution (pH 6.5). The assay mixture was cultured at a temperature of 25° C. for 30 minutes. After the culturing, an amount of the produced DOPA chrome in the reaction mixture was measured by using a microplate reader (Hewlett Packard) at 492 nm (OD492).

male Balb/c mouse = experiment: Toxicity test, single oral administration; assay type: in vivo; conditions: single oral dose 0.5, 1 and 2 g/kg in 0.5% methylcellulose, observed 7 days
Experimental: A suspension of each of Compound 3, Compound 15, Compound 50, Compound 85, Compound 93, and Compound 115 in a 0.5% methylcellulose solution was orally administered once to a male Balb/c mouse in dosages of 0.5 g/kg, 1 g/kg, and 2 g/kg, and then the survival rate and body weight of the mouse was recorded for 7 days.
After the administration, whether the mouse died, clinical symptoms occurred, and body weight changed were identified and hematologic examination and blood biochemical examination were performed, and autopsy was performed to identify with naked eyes states of abdominal cavity organs and thoracic cavity organs.

PPAR gamma-LBD = target: T1, PPAR gamma-LBD (Homo sapiens, UniProt P37231); experiment: PPAR gamma assay (fluormone Pan-PPAR green competition, Tb-anti-GST antibody); assay type: binding; conditions: sample final concentration 100 M (so in the source); compared with rosiglitazone (positive control); FIG. 8
T1 construct: 10 μl of 4×PPAR gamma-LBD/Tb-anti-GST antibody
T1 sequence (P37231 238-503 limits assumed): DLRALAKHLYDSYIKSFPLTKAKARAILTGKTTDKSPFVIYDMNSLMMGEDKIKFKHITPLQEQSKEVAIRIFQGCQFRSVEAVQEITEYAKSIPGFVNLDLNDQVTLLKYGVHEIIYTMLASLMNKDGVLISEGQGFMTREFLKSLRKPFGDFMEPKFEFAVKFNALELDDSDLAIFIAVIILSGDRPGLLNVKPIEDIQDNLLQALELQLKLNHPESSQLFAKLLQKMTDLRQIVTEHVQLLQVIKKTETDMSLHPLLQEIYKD
Experimental: 20 μl of a sample and 10 μl of 4× fluormone Pan-PPAR green were spread onto 384 well plates, and 10 μl of 4×PPAR alpha-LBD/Tb-anti-GST antibody or 10 μl of 4×PPAR gamma-LBD/Tb-anti-GST antibody were respectively used in PPAR alpha assay and PPAR gamma assay. In this regard, a sample compound was dissolved in such an amount of DMSO that made a final concentration of the sample to be 100 µM, and the DMSO final concentration was maintained within 1%. The reaction mixture was left at room temperature for 2 to 6 hours, and then, the absorption thereof was measured by using a microplate reader (Hewlett Packard) at an excitation wavelength of 340 nm and at an emission wavelength of 485 nm, and at an exitation wavelength of 340 nm and an emission wavelength of 520 nm to calculate a value of 520 nm/485 nm. In this regard, if a negative control was assumed to have an absorption value of 100, a competitive activation rate was defined as follows: 100 minus an absorption value of each sample. That is, the competitive activation rate indicates a binding ratio of the respective samples with respect to the negative control. […]

PPAR alpha-LBD = target: T2, PPAR alpha-LBD (Homo sapiens, UniProt Q07869); assay type: binding; conditions: sample final concentration 100 M (so in the source); compared with fenofibrate (positive control); FIG. 7
T2 construct: 10 μl of 4×PPAR alpha-LBD/Tb-anti-GST antibody
T2 sequence (Q07869 239-466 limits assumed): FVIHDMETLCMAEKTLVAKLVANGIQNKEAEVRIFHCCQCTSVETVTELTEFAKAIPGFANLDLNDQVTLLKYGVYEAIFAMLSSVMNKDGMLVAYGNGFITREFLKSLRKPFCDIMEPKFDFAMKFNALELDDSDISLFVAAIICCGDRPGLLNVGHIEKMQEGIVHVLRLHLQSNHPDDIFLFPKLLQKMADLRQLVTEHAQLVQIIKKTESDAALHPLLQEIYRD

Row | Compound | scavenging effects on ROS generated by vascular endothelial cells [1] | melting point [°C] | other results
1 | O=C1NC(=O)/C(=C/c2ccc(O)c(O)c2)S1 [Compound 2, (Z)-5-(3,4-dihydroxybenzylidene)thiazolidine-2,4-dione] | as high scavenging effects on ROS generated by vascular endothelial cells as trolox | > 300 | 
2 | O=C1NC(=O)/C(=C/c2ccc(O)cc2O)S1 [Compound 3, (Z)-5-(2,4-dihydroxybenzylidene)thiazolidine-2,4-dione] |  |  | tyrosinase inhibitory activities [2]: better tyrosinase inhibitory activities than a kojic acid; death and clinical symptoms (male Balb/c mouse): neither had distinctive clinical symptoms nor died; toxicity change (body weight change, hematologic examination, blood biochemical examination, autopsy) (male Balb/c mouse): toxicity change was not identified
3 | O=C1NC(=O)C(=Cc2ccc(O)c(O)c2)C(=O)N1 [Compound 15, 5-(3,4-dihydroxybenzylidene)pyrimidine-2,4,6(1H,3H,5H)-trione] | as high scavenging effects on ROS generated by vascular endothelial cells as trolox |  | tyrosinase inhibitory activities [2]: better tyrosinase inhibitory activities than a kojic acid; death and clinical symptoms (male Balb/c mouse): neither had distinctive clinical symptoms nor died; toxicity change (body weight change, hematologic examination, blood biochemical examination, autopsy) (male Balb/c mouse): toxicity change was not identified
4 | O=C1NC(=O)/C(=C/c2ccc(O)c(O)c2)N1 [Compound 26, (Z)-5-(3,4-dihydroxybenzylidene)imidazolidine-2,4-dione] | as high scavenging effects on ROS generated by vascular endothelial cells as trolox | > 300 | 
5 | O=C1C/C(=C\c2ccc(O)c(O)c2)C(=O)N1 [Compound 37, (E)-3-(3,4-dihydroxybenzylidene)pyrrolidine-2,5-dione] | as high scavenging effects on ROS generated by vascular endothelial cells as trolox | 290.8 to 291.9 | 
6 | O=C1NC(=S)NC(=O)C1=Cc1ccc(O)c(O)c1 [Compound 50, 5-(3,4-dihydroxybenzylidene)-2-thioxodihydropyrimidine-4,6(1H,5H)-dione] | as high scavenging effects on ROS generated by vascular endothelial cells as trolox |  | tyrosinase inhibitory activities [2]: better tyrosinase inhibitory activities than a kojic acid; death and clinical symptoms (male Balb/c mouse): neither had distinctive clinical symptoms nor died; toxicity change (body weight change, hematologic examination, blood biochemical examination, autopsy) (male Balb/c mouse): toxicity change was not identified
7 | [H]/N=C1/NC(=O)C(=Cc2ccc(O)c(O)c2)N1C [Compound 75, (Z)-5-(3,4-dihydroxybenzylidene)-2-imino-1-methylimidazolidin-4-one] | as high scavenging effects on ROS generated by vascular endothelial cells as trolox | 293 to 295.3 | 
8 | CC(=O)Oc1ccc(/C=C2\N=C(C)OC2=O)c(O)c1 [Compound 85, (Z)-3-hydroxy-4-((2-methyl-5-oxooxazol-4(5H)-ylidene)methyl)phenyl acetate] |  |  | PPARγ activities (competitive activation rate) (PPAR gamma-LBD): simultaneously activates PPARα and PPARγ; PPARα activities (competitive activation rate) (PPAR alpha-LBD): very excellent PPARα activation agent compared to fenofibrate; also recorded: simultaneously activates PPARα and PPARγ
9 | COc1cc(/C=C2\N=C(C)OC2=O)cc(OC)c1OC(C)=O [Compound 95, (Z)-2,6-dimethoxy-4-((2-methyl-5-oxooxazol-4(5H)-ylidene)methyl)phenyl acetate] | as high scavenging effects on ROS generated by vascular endothelial cells as trolox |  | 
10 | O=C1NC(=S)N/C1=C\c1ccc(O)c(O)c1 [Compound 99, (Z)-5-(3,4-dihydroxybenzylidene)-2-thioxoimidazolidin-4-one] | as high scavenging effects on ROS generated by vascular endothelial cells as trolox | > 300 | 
11 | O=C1NC(=S)N/C1=C\c1ccc(O)cc1O [Compound 100, (Z)-5-(2,4-dihydroxybenzylidene)-2-thioxoimidazolidin-4-one] | as high scavenging effects on ROS generated by vascular endothelial cells as trolox | > 300 | 
12 | COc1cc(/C=C2\NC(=S)NC2=O)ccc1O [Compound 101, (Z)-5-(4-hydroxy-3-methoxybenzylidene)-2-thioxoimidazolidin-4-one] | as high scavenging effects on ROS generated by vascular endothelial cells as trolox |  | 
13 | CCOc1cc(/C=C2\NC(=S)NC2=O)ccc1O [Compound 102, (Z)-5-(3-ethoxy-4-hydroxybenzylidene)-2-thioxoimidazolidin-4-one] | as high scavenging effects on ROS generated by vascular endothelial cells as trolox | 175.4 to 177.2 | 
14 | O=C1NC(=S)N/C1=C\c1cc(O)cc(O)c1 [Compound 106, (Z)-5-(3,5-dihydroxybenzylidene)-2-thioxoimidazolidin-4-one] | as high scavenging effects on ROS generated by vascular endothelial cells as trolox | > 300 | 
15 | COc1cc(/C=C2\NC(=S)NC2=O)cc(OC)c1O [Compound 110, (Z)-5-(4-hydroxy-3,5-dimethoxybenzylidene)-2-thioxoimidazolidin-4-one] | as high scavenging effects on ROS generated by vascular endothelial cells as trolox | 240.1 to 242.6 | 
